Like-named read-outs stand apart in the source and are kept apart here.
Experiments:
[1] = test system: P. aeruginosa PA14; assay: Dose response and checkerboard assays against PA14; format: cell-based, Pseudomonas aeruginosa; conditions: for synergy with DSX: checkerboard of DSX with antibiotic
Procedure: Checkerboard assays were set-up using Nunc 96-well plates in an 8-well by 8-well format. Two columns were allocated for vehicle controls and two columns for sterility controls. Vehicle controls contained 2 μL DMSO plus 2 μL DFP solvent for checkerboards with TS and DFP or 4 μL DMSO for TS and DSX, in 146 μL of 10:90 medium or 10% serum inoculated with PA14 or PAO1-KP as described in Growth Curves. Sterile controls contained the same components in 10:90 medium or 10% serum, without cells. Serial dilutions of TS—with 17 μg/mL being the highest final concentration—were added along the y axis of the checkerboard (increasing concentration from bottom to top) whereas serial dilutions of DFP or DSX—with 512 μg/mL being the highest final concentration—were added along the x axis (increasing concentration from left to right). The final volume of each well was 150 μL and each checkerboard was repeated at least three times. Plates were incubated and the final OD600 determined as detailed above.
Culture conditions, growth assays, dose response and checkerboard assays using P. aeruginosa PA14 were performed as described in Example 1. Briefly, overnight cultures were grown in LB for 16 h, 37° C., 200 rpm then subcultured (1:500 dilution) into 10:90 for 6 h. Subcultures were standardized to OD600 of 0.10 and diluted 1:500 in fresh 10:90 before use. For the dose response assay, serial dilutions of compounds were added at 75 times the final concentration and diluted with 10:90 with cells to reach the desired final concentration. This was done in triplicate for technical replicates. Vehicle and sterile controls were included. The checkerboard assay was done similarly to the dose response assay but in an 8×8 format in a 96-well Nunc plate, with concentration of one drug increasing along the y-axis and the other along the x-axis. Sterility and vehicle controls were included with two columns allocated for each control. At least three biological replicates were repeated for the dose response and checkerboard assays.

[2] = test system: P. aeruginosa PA14; assay: Thiopeptide + DSX checkerboard and dose-response assays; format: cell-based, Pseudomonas aeruginosa; conditions: thiopeptide + DSX checkerboard, 10:90
Procedure: Culture conditions, checkerboard assays using P. aeruginosa PA14 and dose-response assays were performed as described in Example 1. In addition to TS, other thiopeptides tested were siomycin A (SM), thiocillin I (TC), micrococcin P1 (MC), nosiheptide (NH), berninamycin A (BER), and geninthiocin A (GEN). For dose response assays of the combinations conducted in 10:90, DSX concentration was constant at 64 μg/mL.

[3] = checkerboard, IC50 isobolograms, PA14, 10:90

| Compound | synergy with TS [1, 3] | synergy with DSX [2] | other results |
| --- | --- | --- | --- |
| COc1cc(/C=C/C(=O)CC(=O)/C=C/c2ccc(O)c(OC)c2)ccc1O [Curcumin] | None | – | – |
| O=C(O[C@@H]1Cc2c(O)cc(O)cc2O[C@@H]1c1cc(O)c(O)c(O)c1)c1cc(O)c(O)c(O)c1 [epigallocatechin gallate, Epigallocatechin Gallate] | None | – | – |
| geninthiocin A | – | did not synergize | – |
| O=P([O-])([O-])O[C@H]1[C@H](OP(=O)([O-])O)[C@H](OP(=O)([O-])[O-])[C@H](OP(=O)([O-])O)[C@@H](OP(=O)([O-])[O-])[C@@H]1OP(=O)([O-])O.[Na+].[Na+].[Na+].[Na+].[Na+].[Na+].[Na+].[Na+].[Na+] [sodium phytate, Sodium phytate] | – | – | synergy with TS [1]: None |
| O=[N+]([O-])[O-].O=[N+]([O-])[O-].O=[N+]([O-])[O-].[Ga+3] [GN, Gallium Nitrate] | – | – | relative potency of synergy with TS [1]: weakest; synergy with TS [1]: synergized |
| Cc1nc(C)c(C)nc1C [2,3,5,6-tetrametylpyrazine, 2,3,5,6-Tetramethylpyrazine] | None | – | – |
| C/C=C(\NC(=O)c1csc(-c2csc(-c3ccc4c(n3)-c3csc(n3)[C@H]([C@@H](C)O)NC(=O)c3csc(n3)[C@H](C(C)(C)O)NC(=O)c3csc(n3)/C(=C/C)NC(=O)[C@H]([C@@H](C)O)NC(=O)c3csc-4n3)n2)n1)C(=O)NC[C@@H](C)O [TC, thiocillin I] | – | synergize | – |
| NC[C@H]1O[C@H](O[C@H]2[C@H](O)[C@@H](O[C@H]3O[C@H](CO)[C@@H](O)[C@H](N)[C@H]3O)[C@H](N)C[C@@H]2N)[C@H](N)C[C@@H]1O [tobramycin] | – | – | synergy with DSX ([1]; PA14): No synergy |
| O=C(CCc1ccc(O)cc1)c1c(O)cc(O)cc1O [phloretin, Phloretin] | None | – | – |
| C[C@H]1c2cccc(O)c2C(=O)C2=C(O)[C@]3(O)C(=O)C(C(N)=O)=C(O)[C@@H](N(C)C)[C@@H]3[C@@H](O)[C@@H]21 [DOXY, Doxycycline] | – | – | one-eighth of MIC against PA14 (test concentration) ([1]; Pseudomonas aeruginosa, PA14, concentration used in clinical isolate testing, read-out: ⅛^th the MIC of PA14): 1 µg/mL |
| O=C(O)[C@H]1O[C@@H](Oc2cc3oc(-c4ccccc4)cc(=O)c3c(O)c2O)[C@H](O)[C@@H](O)[C@@H]1O [baicalin, Baicalin] | None | – | – |
| C=C(NC(=O)C(=C)NC(=O)c1csc(C2=N[C@@H]3c4csc(n4)[C@H]4NC(=O)c5csc(n5)[C@H]([C@](C)(O)[C@@H](C)O)NC(=O)[C@H]5CSC(=N5)/C(=C/C)NC(=O)[C@H]([C@@H](C)O)NC(=O)c5csc(n5)[C@]3(CC2)NC(=O)[C@H](C)NC(=O)C(=C)NC(=O)C(=C)NC(=O)[C@H](C(C)C)N[C@@H]2C=Cc3c([C@H](C)O)cc(nc3[C@H]2O)C(=O)O[C@@H]4C)n1)C(N)=O [SM, siomycin A] | – | synergize | – |
| C=C(NC(=O)c1csc(-c2nc3c(cc2O)-c2nc(cs2)C(=O)NC(C(C)O)C(=O)N/C(=C\C)c2nc(cs2)C(=O)NC2CC(O)C(=O)OCc4cccc5[nH]c(c(C)c45)C(=O)SCC(NC(=O)c4csc2n4)c2nc-3cs2)n1)C(N)=O (stereo not drawn) [NH, nosiheptide] | – | synergize | – |
| C=C(NC(=O)C(=C)NC(=O)c1ccc2c(n1)-c1coc(n1)C(=C)NC(=O)C(=C)NC(=O)c1nc(oc1C)C(=C)NC(=O)[C@H](C(C)(C)O)NC(=O)C(=C)NC(=O)c1nc(oc1C)/C(=C/C)NC(=O)[C@H]([C@@H](C)O)NC(=O)c1csc-2n1)C(N)=O [BER, berninamycin A] | – | did not synergize | – |
| micrococcin P1 [MP] | – | synergize | – |
| O=C(N[C@H](CO)[C@H](O)c1ccc([N+](=O)[O-])cc1)C(Cl)Cl [Chloramphenicol] | – | – | synergy with DSX ([1]; PA14): No synergy |
| COc1cc(/C=C/C(=O)O)ccc1O [ferulic acid, Ferulic Acid] | None | – | – |

— patent publication US20220168384A1, “Anti-Bacterial Combination Therapy” (McMaster University, priority 2019, published 2022)
